This passage reports IC50 and MIC results from US8846711B2, “Heterocyclic acrylamides and their use as pharmaceuticals” (Fab Pharma S.A.S., priority 2009, dated 2014).

Molecules are shown by their SMILES. Converted amounts (≈) assume the structure as drawn.

Test [1] has as its target recombinant S. aureus FabI enzyme (Staphylococcus aureus (strain MRSA252), UniProt Q6GI75). Put plainly: FabI inhibition, fluorescence based assay. The format is biochemical. The settings on record: in vitro. As to the method: Compound inhibitory activity of FabI enzyme is measured in vitro by the […] determination using a fluorescence based assay.
The protein FabI from S. aureus is prepared and purified using standard methods for recombinant protein expression after cloning of the gene in a prokaryotic expression vector.
The biochemical activity of the FabI enzyme is assessed using the following method.
The assay buffer “AB” contained 50 mM ADA (N-(2-acetamido)iminodiacetic acid monosodium salt) pH 6.5, 1 mM dithiothreitol, 0.006% Triton-X100 and 50 mM NaCl.
The following components are added in a white polystyrene Costar plate (Ref 3912) up to a final volume of 55.5 μL: 1.5 μL DMSO or inhibitor dissolved in DMSO and 54 μL of a FabI/NADPH/NADP+ mixture in AB. After 60 min of pre-incubation at room temperature, the reaction is started by addition of 5 μL of trans-2-octenoyl N-acetylcysteamine thioester (t-o-NAC) to a final volume of 60.5 μL. This reaction mixture is then composed of 2 nM FabI, 40 μM NADPH (Sigma, N7505), 10 μM NADP+ (Sigma, N5755), 100 μM t-O-NAC and compound at defined concentration. Fluorescence intensity of NADPH (λex=360 nm, […]) is measured immediately after t-O-NAC addition (T0), and approximately 50 min later (T50) by a Fluostar Optima (BMG) so as to achieve ±30% of NADPH conversion. Enzyme activity is calculated by first subtracting TO signal to T50 and then subtracting background signal (FabI=0). Percentages of inhibition are calculated against untreated samples (Inhibitor=0) and IC50 are fitted to a classical Langmuir equilibrium model using XLFIT (IDBS).

Another test has as its system S. aureus CIP 54.146. Nature of the test: MIC determination using broth microdilution method. The test is classed as cell-based. Particulars: Staphylococcus aureus, CIP54 / MSSA, read-out: MIC (μg/ml) S. aureus CIP 54.146. Here is the method:
The compounds of the invention are useful antibacterial agents having a selective spectrum of activity in vitro against bacterial strains relying on FabI and related targets. […] The activity is presented as Minimum Inhibitory Concentration (MIC) expressed in μg/ml and was determined using broth microdilution or Agar dilution methods.
Antibacterial activity was determined on strains from Mutabilis internal collection.
This protocol is compliant with Clinical Laboratory Standards Institute (CLSI) methodology as described in M7-A7 document of the CLSI. The compound to be tested is diluted according to a geometric series of reason 2 in pure DMSO. Dilutions are transferred in sterile polystyrene microplates, followed by mid-log phase bacteria in cation-adjusted Muller-Hinton broth (ca-MHB, Fluka, Reference 90922) with a final inoculum of 5×10^5 cfu/ml. Microplates are incubated overnight at 35° C. MIC is defined as the lowest concentration of antimicrobial agent that completely prevents visible bacterial growth. All manipulations, but compound handling (in pure DMSO), are performed under sterile conditions. The final concentration of DMSO in the plates is 2%.

Turning to `CCCC1CCN(C(=O)/C=C/c2cnc3c(c2)CCC(=O)N3)CC1` [Example 8, 6-[(1E)-3-Oxo-3-(4-propylpiperidin-1-yl)prop-1-en-1-yl]-3,4-dihydro-1,8-naphthyridin-2(1H)-one], the IC50 in test [1] amounted to 0.041 µM. Further, in the test with S. aureus CIP 54.146, the MIC is 4 µg/mL (≈ 12.2 µM).

With `O=C1CCc2cc(/C=C/C(=O)N3CCC(Oc4ccccc4)C3)cnc2N1` (stereo not shown) [Example 10, 6-[(1E)-3-Oxo-3-(3-phenoxypyrrolidin-1-yl)prop-1-en-1-yl]-3,4-dihydro-1,8-naphthyridin-2(1H)-one], the IC50 in test [1] came to 0.12 µM. Further, the MIC with S. aureus CIP 54.146 stood at 4 µg/mL (≈ 11 µM).
